Reference: patent US12286632B2, “Rationally-designed synthetic peptide shuttle agents for delivering polypeptide cargos from an extracellular space to the cytosol and/or nucleus of a target eukaryotic cell, uses thereof, methods and kits relating to same” (Feldan Bio Inc., priority 2016, dated 2025)
Read-outs that look alike come from different tables or passages of the source. Ends that are not written are not given here.

Columns and labels:
in vitro [1] = conditions: human, HeLa cells
THP-1 cells = experiment: GFP-NLS protein transduction assay (flow cytometry: Pos cells %, viability %, relative fluorescence intensity; microscopy); conditions: for Mean % cells with GFP signal (±St. Dev.; n = 3): THP-1 cells, GFP-NLS 10 μM
HeLa cells [2] = experiment: as above; conditions: for FIG. 13B Cell viability (%) (±St Dev.; n = 3): Table 5.1; for FIG. 13B Cell viability (%) (±St Dev.; n = 3) / FIG. 21B Cell viability (%) (±St. Dev.; n = 3): GFP-NLS 5 μM, HeLa, 1 hour; for FIG. 21B Cell viability (%) (±St. Dev.; n = 3): Table 8.1
in vitro [3] = conditions: human, HeLa cells; remark: listed apart in the source
HeLa cells [4] = experiment: Plasmid DNA (pEGFP-C1) transfection by peptides (% cells with GFP signal, cell viability); conditions: DNA transfection in HeLa cells using peptides; pEGFP-C1 plasmid
B2M genomic DNA sequence = experiment: T7E1 DNA cleavage assay / % INDELs after CRISPR/Cas9-NLS or CRISPR/Cpf1-NLS delivery (HeLa, THP-1, NK, T cells); assay type: cell-based, Human; conditions: CRISPR/Cpf1 1.33 μM, crRNA 2 μM; THP-1 and NK cells; different concentrations and exposure times
Text: The T7 endonuclease I (T7E1) can be used to detect on-target CRISPR/Cas genome editing events in cultured cells. As an overview, genomic DNA from target cells is amplified by PCR. The PCR products are then denatured and reannealed to allow heteroduplex formation between wild-type DNA and CRISPR/Cas-mutated DNA. T7E1, which recognizes and cleaves mismatched DNA, is used to digest the heteroduplexes. The resulting cleaved and full-length PCR products are visualized by gel electrophoresis.
The T7E1 assay was performed with the Edit-R™ Synthetic crRNA Positive Controls (Dharmacon #U-007000-05) and the T7 Endonuclease I (NEB, Cat #M0302S). After the delivery of the CRISPR/Cas complex, cells were lysed in 100 μL of Phusion™ High-Fidelity DNA polymerase (NEB #M0530S) laboratory with additives. The cells were incubated for 15-30 minutes at 56° C., followed by deactivation for 5 minutes at 96° C. The plate was briefly centrifuged to collect the liquid at bottom of the wells. 50-μL PCR samples were set up for each sample to be analyzed. The PCR samples were heated to 95° C. for 10 minutes and then slowly (>15 minutes) cooled to room temperature. PCR product (-5 μL) was then separated on an agarose gel (2%) to confirm amplification. 15 μL of each reaction was incubated with T7E1 nuclease for 25 minutes at 37° C. Immediately, the entire reaction volume was run with the appropriate gel loading buffer on an agarose gel (2%).
Cas9-NLS recombinant protein was prepared as described in Example 13.1. Cpf1-NLS recombinant protein was prepared as described in Example G.2. A mix composed of a Cas9-NLS recombinant protein with its respective crRNAltracrRNA, or a Cpf1-NLS recombinant protein with its respective single guide crRNA(s) (see below) targeting a nucleotide sequence of the B2M gene, was co-incubated with different concentrations of the peptides FSD10, FSD18, FSD19, FSD21, FSD22, or FSD23 and incubated with HeLa, THP-1 or NK cells for 90 sec in PBS, or for 1 h in medium without serum, or for 48 h in medium with serum, using the transduction protocols as generally described in Example 3.1a. Cells were then washed with PBS and harvested to proceed with the T7E1 protocol assay as described in Example 13.4.
FIGS. 52A-52D show the results of the cleavage of the targeted genomic B2M DNA sequence after the delivery of CRISPR/Cpf1 (1.33 μM) with crRNA−1 or crRNA−2 (2 μM) in the absence (“-ctrl”) or in the presence of the peptides FSD10, FSD18, FSD19, FSD21 or FSD23 used at different concentrations, exposure times, and in different types of cells: THP-1 (FIG. 52A), and NK (FIGS. 52B, 52C, 52D), after separation by agarose gel electrophoresis. […] Gel lanes were loaded in duplicate. Thin dashed arrows indicate the bands corresponding to the target gene, and thick solid arrows indicate the bands corresponding to the cleavage products of this target gene, which indicate the successful transduction of fully functional CRISPR genome editing complexes. We used a Bio-Rad ImageLab™ software (Version 5.2.1, Bio-Rad, http://www.bio-rad.com/en-ca/product/image-lab-software?tab=Download) to quantify the relative signal intensities of each of the different bands directly on the gels. The sum of all the bands in a given lane corresponds to 100% of the signal, and the numerical value in italics at the bottom of each lane is the sum of the relative signals (%) of only the two cleavage product bands (thick solid arrows). No cleavage product bands were found in the negative controls (“-ctrl”, i.e., to cells that were exposed to CRISPR system in the absence of FSD peptide).
Cas9-NLS recombinant protein was prepared as described in Example 13.1. Cpf1-NLS recombinant protein was prepared as described in Example G.2. […]

HeLa cells [5] = experiment: Transduction of anti-NUP98 antibody, immuno-labelling and fluorescence microscopy; assay type: cell-based, Human; conditions: FSD19 7.5 μM; 4 hours
Method: Anti-NUP98 antibody […] was co-incubated with 7.5 μM of FSD19 and exposed to HeLa cells for 4 hours. Cells are washed, fixed with paraformaldehyde 4%, permeabilized with 0.1% Triton™ and labeled with a fluorescently labeled (Alexa™ Fluor 488) goat anti-rat antibody. Antibody bound to the perinuclear membrane and cell nuclei were visualized by fluorescence microscopy at 20× (upper panels) and 40× (lower panels).

in vitro [6] = conditions: human, THP-1 cells
HeLa cells [7] = experiment: FITC-labeled anti-tubulin antibody transduction assay (flow cytometry, cell viability, microscopy); conditions: FITC-labeled anti-tubulin antibody 0.5 μM, HeLa, 1 hour; shuttle 3.5 μM
Method: The delivery and microscopy protocols are described in Example 3.
HeLa cells were cultured and tested in the protein transduction assay described in Example 3.1. […] The cells were subjected to flow cytometry analysis as described in Example 3.3.

HeLa cells [8] = experiment: TAT-GFP protein transduction assay (flow cytometry, cell viability, fluorescence microscopy); assay type: cell-based, Human; conditions: TAT-GFP 5 μM, 1 hour
Method: Briefly, TAT-GFP recombinant protein (5 μM) was co-incubated with different concentrations of CM18-TAT-Cys (0, 0.5, 1, 3, or 5 μM) and then exposed to HeLa cells for 1 hour.

primary myoblasts = experiment: Calcein endosomal escape assay, quantification by flow cytometry (mean counts, Mean Factor); assay type: cell-based, Human; conditions: myoblast cells
Text: Calcein is a membrane-impermeable fluorescent molecule that is readily internalized by cells when administered to the extracellular medium. Its fluorescence is […] and calcein self-quenches at higher concentrations. Once internalized, calcein becomes sequestered at high concentrations in cell endosomes and can be visualized by fluorescence microscopy as a punctate pattern. Following endosomal leakage, calcein is released to the cell cytoplasm and this release can be visualized by fluorescence microscopy as a diffuse pattern.
The cells were allowed to attach by incubating overnight in appropriate growth media, as described in Example 1. The next day, the media in wells was removed and replaced with 50 μL of fresh media without serum containing 62.5 μg/mL (100 μM) of calcein, except for HEK293A (250 μg/mL, 400 μM). […]
Untreated calcein-loaded cells were used as a control to distinguish cells having a baseline of fluorescence due to endosomally-trapped calcein from cells having increased fluorescence due to release of calcein from endosomes. Fluorescence signal means (“mean counts”) were analyzed for endosomal escape quantification. In some cases, the “Mean Factor” was calculated, which corresponds to the fold-increase of the mean counts relative to control (untreated calcein-loaded cells). […] The cellular mortality was monitored with the percentage of cells in the total events scanned. […]

HeLa cells [9] = assay type: cell-based, Human; conditions: GFP (5 μM), 1 hour
Method: One day before the transduction assay was performed, cells in exponential growth phase were harvested and plated in a 96-well plate (20,000 cells per well). The cells were incubated overnight in appropriate growth media containing FBS (see Example 1). The next day, in separate sterile 1.5 mL tubes, cargo protein at the indicated concentration was pre-mixed (pre-incubated) for 1 or 10 min (depending on the protocol) at 37° C. with the peptide(s) to be tested shuttle agents (0.5 to 5 μM) in 50 μL of fresh medium without serum (unless otherwise specified). The media in wells was removed and the cells were washed three times with freshly prepared phosphate buffered saline (PBS) previously warmed at 37° C. The cells were incubated with the cargo protein/shuttle agent mixture at 37° C. for the indicated time (e.g., 1, 5 or 60 min). After the incubation, the cells were quickly washed three times with freshly prepared PBS and/or heparin (0.5 mg/mL) previously warmed at 37° C. […] The cells were finally incubated in 50 μL of fresh medium with serum at 37° C. before analysis.
The Olympus filter U-MF2™ (C54942-Exc495/Em510) was used to observe GFP and FITC-labeled antibody fluorescent signals. […] The Olympus filter U-MWU2™ (Exc330/Em385) was used to observe DAPI or Blue Hoechst fluorescent signals. The cells incubated in 50 μL of fresh medium were directly observed by microscopy (Bright-field and fluorescence) at different power fields (4× to 40×). The cells were observed using a CoolSNAP-PRO™ camera (Series A02D874021) and images were acquired using the Image-Proplus™ software.
The fluorescence of GFP was quantified using flow cytometry (Accuri C6, Becton, Dickinson and Company (BD)). Untreated cells were used to establish a baseline in order to quantify the increased fluorescence due to the internalization of the fluorescent protein in treated cells. The percentage of cells with a fluorescence signal above the maximum fluorescence of untreated cells, “mean %” or “Pos cells (%)”, is used to identify positive fluorescent cells. “Relative fluorescence intensity (FL1−A)” corresponds to the mean of all fluorescence intensities from each cell with a fluorescent signal after fluorescent protein delivery with the shuttle agent. Also, the events scanned by flow cytometry corresponding to cells (size and granularity) were analyzed. The cellular toxicity (% cell viability) was monitored comparing the percentage of cells in the total events scanned of treated cells comparatively to untreated cells.

Sequence: HHHHHHLLKLWSRLLKTWTQGRRLKAKSAQASTRQAHHHHHH [FSD19]
- viability (in vitro [1]): 97.4 ± 2.07%
- Mean % cells with GFP signal (±St. Dev.; n = 3) (THP-1 cells; peptide 2 μM, incubation 0.5 min): 55.4 ± 4.63%
- Mean % cells with GFP signal (±St. Dev.; n = 3) (THP-1 cells; peptide 5 μM, incubation 0.25 min): 61.5 ± 6.07%
- Mean % cells with GFP signal (±St. Dev.; n = 3) (HeLa cells [2]; Table B2, HeLa cells, GFP-NLS cargo): 55.17 ± 4.62%
- viability (in vitro [3]; Cell viability (%) (±St Dev.; n = 3)): 80.6 ± 5.36%
- Mean % cells with GFP signal (±St. Dev.; n = 3) (HeLa cells [4]): 0.24 ± 0.00%
- delivery of CRISPR/Cpf1 complex, cleavage of genomic B2M (in words) (B2M genomic DNA sequence): successful delivery of the CRISPR genome-editing complexes to the nucleus
- functionality of transduced anti-NUP98 antibody (microscopy) (HeLa cells [5]): anti-NUP98 antibody retained its functionality inside the cell following its transduction
- viability at 15 s, 5 µM (in vitro [6]): 60.5 ± 5.71%
- viability at 0.5 min, 2 µM (in vitro [6]): 68.7 ± 4.29%

Sequence: KWKLFKKIGAVLKVLTTGYGRKKRRQRRRC [CM18-TAT-Cys]
- viability (in vitro [1]): 96.3 ± 1.86%
- FIG. 19B Cell viability (%) (± St. Dev.; n = 3) (HeLa cells [7]): 95 ± 4.06%
- FIG. 17B Cell viability (%) (±St Dev.; n = 3) (THP-1 cells; Table 5.5, GFP-NLS 5 μM, THP-1, 5 minutes, shuttle 1 μM): 85 ± 6%
- FIG. 13B Cell viability (%) (±St Dev.; n = 3) (HeLa cells [2]; shuttle 0.5 μM): 87.6 ± 4%
- FIG. 13B Cell viability (%) (±St Dev.; n = 3) (HeLa cells [2]; shuttle 1 μM): 93 ± 8%
- FIG. 13B Cell viability (%) (±St Dev.; n = 3) (HeLa cells [2]; shuttle 5 μM): 93 ± 4%
- FIG. 21B Cell viability (%) (±St. Dev.; n = 3) (HeLa cells [2]; shuttle 3 μM): 89 ± 5.37%
- FIG. 21B Cell viability (%) (±St. Dev.; n = 3) (HeLa cells [2]; shuttle 5 μM): 81 ± 6.34%
- FIG. 11B Cell viability (%) (±St. Dev.; n = 3) (HeLa cells [8]; shuttle 0.5 μM): 84.36 ± 5%
- FIG. 11B Cell viability (%) (±St. Dev.; n = 3) (HeLa cells [8]; shuttle 1 μM): 89.26 ± 5.26%
- FIG. 11B Cell viability (%) (±St. Dev.; n = 3) (HeLa cells [8]; shuttle 3 μM): 93.18 ± 6.28%
- FIG. 11B Cell viability (%) (±St. Dev.; n = 3) (HeLa cells [8]; shuttle 5 μM): 95.14 ± 5.28%
- peptide concentrations associated with an increase in cell toxicity (primary myoblasts): above 10 μM
- viability at 1 h, 1 µM (in vitro [3]): 94 ± 4.28%
- Cell viability (%) (HeLa cells [9]; shuttle 0.5 μM): 88.4 ± 6%
- Cell viability (%) (HeLa cells [9]; shuttle 1 μM): 90 ± 6%
- Cell viability (%) (HeLa cells [9]; shuttle 3 μM): 91 ± 5%
- Cell viability (%) (HeLa cells [9]; shuttle 5 μM): 90 ± 7%
